Measurements published in PMC9570599, “Kribbellichelins A and B, Two New Antibiotics from Kribbella sp. CA-293567 with Activity against Several Human Pathogens” (Molecules, 2022).
Values after ≈ are worked out from the molar mass of the structure shown. Values joined by “and” are separate entries in the source; they are usually repeats but may differ in a detail not shown here. Equal entries are not always repeated. “Also recorded” adds a separate entry of the source. Where two headings read alike, the source gives them in different places.

Key:
[1] = test system: C. albicans ATCC-64124; test: Antifungal growth inhibition assay, C. albicans; format: cell-based, Candida albicans
Procedure: (§1) Purification fractions and purified compounds 1–3 and 5 were tested against a wide panel of antimicrobial assays for the growth inhibition of human pathogens including MRSA MB-5393, A. baumannii MB-5973, P. aeruginosa MB-5919, A. fumigatus ATCC-46645, and C. albicans ATCC-64124 as 10-point curves with 1:2 dilutions starting at 128 μg/mL in duplicate, following previously described methodologies. Most of the pathogens were acquired from the American Type Culture Collection (ATCC)(Manassas, VA, USA), except for those already present in our MEDINA bacteria collection (MB). Pathogen panel investigated was selected according to typical reference strains and procedures indicated by the […].
(§2) The antifungal assay was performed following this methodology; briefly, a thawed stock inoculum suspension from a cryovial of A. fumigatus and C. albicans was streaked onto PDA and Sabouraud Dextrose Agar medium, respectively, and suspended in RPMI-1640 modified medium and incubated at 37 °C for 24 h. Spores concentration of A. fumigatus was determined by counting in Neubauer chamber in order to dilute the culture and obtain an assay inoculum of 2.5 × 10^4 spores/mL. For C. albicans, the OD660 was adjusted to 0.25 using RPMI-1640 modified as diluent and blank. Then, a dilution from the adjusted inoculum was prepared at 1/100 to inoculate 96-well assay plates.
(§3) For the assay, 90 μL/well of the diluted inoculum was mixed with 1.6 μL/well of compound dissolved in DMSO and 8.4 μL/well of MHII or BHI medium for Gram-negative and Gram-positive strains, respectively. Vancomycin was included as an internal plate control for MRSA. A rifampicin, aztreonam, and amphotericin B dose-response curve was used as a positive control against P. aeruginosa, A. baumannii and A. fumigatus, and C. albicans, respectively. Each compound was tested as a 10-point dose-response curve by 1:2 serial dilutions in DMSO starting at 128 µg/mL in duplicate. Total growth was measured using the EnVision® (Redwood City, CA, USA) Multilabel plate reader (Perkin Elmer) with two readings, one at initial time and one after which the microorganism was incubated at 37 °C for 18–20 hours. For the A. fumigatus assay, total growth was measured with a single reading after the incubation.

[2] = test system: A. fumigatus ATCC-46645; test: Antifungal growth inhibition assay, A. fumigatus; format: cell-based, Aspergillus fumigatus; conditions: for inhibition at 7.2 µg/mL / IC50: Aspergillus fumigatus; for inhibition at 7.2 µg/mL: at 7.2 µg/mL (optimal concentration), atypical profile, Eagle effect, read-out: maximum inhibition against A. fumigatus; for decreasing inflection point against A. fumigatus: less inhibition at higher concentrations (Eagle effect)
Procedure: as §1, §2, §3

[3] = test system: A. baumannii MB-5973; test: Gram-negative antibacterial growth inhibition assay, A. baumannii; format: cell-based, Acinetobacter baumannii; conditions: for maximum activity of growth inhibition plateau, A. baumannii: at concentrations higher than 10 µg/mL; for activity against A. baumannii (in words): pure compound, up to 128 µg/mL
Procedure: as §1
(§4) Gram-negative antibacterial assay was performed following this procedure; thawed stock inoculum from vials was streaked onto MHII agar plates and incubated overnight at 37 °C. Isolated colonies were selected and inoculated in 25 mL of MHII liquid growth medium in 250 mL Erlenmeyer flasks overnight at 37 °C. MHII liquid growth medium was used in a 96-well plate assay, adjusting at 5 × 10^5 colony forming units (cfu)/mL (OD600 nm).
as §3

[4] = test system: P. aeruginosa MB-5919; test: Gram-negative antibacterial growth inhibition assay, P. aeruginosa; format: cell-based, Pseudomonas aeruginosa; conditions: for maximum activity of growth inhibition plateau, P. aeruginosa: at concentrations higher than 10 µg/mL; for activity against P. aeruginosa (in words): pure compound, up to 128 µg/mL
Procedure: as §1, §4, §3

[5] = test system: human hepatoma cell line HepG2 (ATCC HB-8065); test: MTT cytotoxicity bioassay; format: cell-based; conditions: 72 h; for cytotoxicity against HepG2 (in words): up to 40 µg/mL
Procedure: Pure compounds were assayed against the human hepatoma cell line HepG2 (ATCC HB-8065) in an MTT test as 20-point curves with 1:2 dilutions starting at 40 μg/mL in triplicate. Cells were seeded at 10.000 cells/well in a 96-well plate (Corning 96-well TC-treated microplates) for 24 h and after addition of compounds 1–3 and 5 plates were incubated for 72 h. MMS (methylmethanesulfonate, Sigma-Aldrich, 4 mM) was used as the positive control, and DMSO 0.5% as the negative control. After addition of MMT dye (thiazolyl blue tetrazoliumbromide, ACROS Organics), cells were incubated for 2–3 h and supernatant was removed. Resulting formazan crystals were finally dissolved by means of 100 µL DMSO (100%) and absorbance was measured at 570 nm. The obtained data was analyzed using Genedata Screener software (Genedata, Inc., Basel, Switzerland) and Prim 9.4.1 software, from GraphPad was used for titrations representation.

[6] = test system: MRSA MB-5393; test: Gram-positive antibacterial growth inhibition assay, MRSA; format: cell-based, methicillin-resistant Staphylococcus aureus; conditions: for activity against MRSA (in words): pure compound, up to 128 µg/mL
Procedure: as §1
For Gram-positive MRSA, a thawed stock inoculum suspension from a cryovial of this microorganism was streaked onto brain heart infusion (BHI) agar plate and incubated at 37 °C overnight to obtain isolated colonies. Single colonies were inoculated into 10 mL of BHI broth medium in 250 mL Erlenmeyer flask and incubated overnight at 37 °C with shaking at 220 rpm and then diluted in order to obtain an assay inoculum of 1.1 × 10^6 CFU/mL [52].
as §3

[7] = test system: S. aureus; design: method as in PMID 8436549; conditions: previously reported; cited from earlier work
[8] = test system: Streptococcus faecalis; design: method as in PMID 8436549; conditions: previously reported; cited from earlier work
[9] = test system: Bacillus subtilis; design: method as in PMID 8436549; conditions: previously reported; cited from earlier work
[10] = test system: Saccharomyces cerevisiae; design: method as in PMID 28074052; conditions: previously reported; cited from earlier work

Structure (SMILES) | inhibition at 7.2 µg/mL ([2]; ATCC46645) [%] | decreasing inflection point against A. fumigatus [2] [µg/mL] | maximum activity of growth inhibition plateau, A. baumannii [3] [%] | activity against A. baumannii (in words) [3] | maximum activity of growth inhibition plateau, P. aeruginosa [4] [%] | activity against P. aeruginosa (in words) [4] | cytotoxicity against HepG2 (in words) [5] | activity against MRSA (in words) [6] | other results
COC(=O)c1cc(O)c(O)c(C(=O)NCCC(=O)N[C@@H](CCCN(O)C(=O)[C@H](CO)NC(=O)CCNC(=O)c2nc(C(=O)OC)cc(O)c2O)C(=O)O)n1 [Compound 1, kribbellichelin A] | 40 | ~50 | 45 | minor inhibitory properties | 30 | minor inhibitory properties | nor significant cytotoxic activity; also recorded: no relevant cytotoxicity | no activity | IC50 versus C. albicans ([1]; C. albicans ATCC-64124, 10-point curve from 128 µg/mL, duplicate): 11.72 µg/mL (≈ 15.3 µM); IC50 ([1]; C. albicans ATCC-64124, molar value in brackets, read-out: IC50 versus C. albicans): 15.3 µM; IC50 ([1]; Candida albicans, ATCC64124, C. albicans ATCC-64124, 10-point curve from 128 µg/mL, duplicate, read-out: IC50 versus C. albicans): 11.7 µg/mL; IC50 ([1]; Candida albicans, ATCC64124, C. albicans ATCC-64124, molar value in brackets, read-out: IC50 versus C. albicans): 15.2 µM
COC(=O)c1cc(O)c(O)c(C(=O)NCCC(=O)N[C@@H](CCCN(O)C(=O)[C@H](CO)NC(=O)CCNC(=O)c2nc(C(=O)OC)cc(O)c2O)C(=O)OC)n1 [Compound 2, kribbellichelin B] | 40 | ~50 | 45 | minor inhibitory properties | 30 | minor inhibitory properties | nor significant cytotoxic activity; also recorded: no relevant cytotoxicity | no activity | 
CC(C)[C@H]1C(=O)OC[C@@H](NC(=O)c2nc3ccccc3cc2O)C(=O)N2CCCC[C@H]2C(=O)NCC(=O)N(C)CC(=O)N(C)[C@@H](C(C)C)C(=O)OC[C@@H](NC(=O)c2nc3ccccc3cc2O)C(=O)N2CCCC[C@@H]2C(=O)NCC(=O)N(C)CC(=O)N1C [Compound 3, sandramycin] |  |  |  | no antibacterial activity |  | no antibacterial activity |  |  | IC50 ([1]; Candida albicans, ATCC64124, read-out: IC50 versus C. albicans): 7.55 µg/mL and 6.19 µM; IC50 ([2]; ATCC46645, read-out: IC50 against A. fumigatus): 5.72 µg/mL and 4.69 µM; antibiotic activity versus S. aureus (in words) [7]: strong antibiotic activity; antibiotic activity versus Streptococcus faecalis (in words) [8]: strong antibiotic activity; ED50 cytotoxic activity against HepG2 ([5]; molar value in brackets): 1.29 nM; antibiotic activity versus Bacillus subtilis (in words) [9]: strong antibiotic activity; IC50 ([6]; Staphylococcus aureus, MRSA, read-out: IC50 versus MRSA MB-5393): 0.31 µg/mL and 250 nM
CC(C)CCCCCCCCCCCCCOC[C@@H](O)CO[C@H]1O[C@H](C(=O)O)[C@@H](O[C@H]2O[C@H](CO)[C@@H](O)[C@H](O)[C@H]2O)[C@H](O)[C@H]1O [Compound 5, kribelloside C] |  |  |  | no activity |  | no activity | no relevant cytotoxicity | no activity | activity against C. albicans (in words) ([1]; pure compound, up to 128 µg/mL): no activity; also recorded: not observed; IC50 ([2]; ATCC46645, A. fumigatus ATCC-46645, read-out: IC50 against A. fumigatus): 13.7 µg/mL (≈ 20.8 µM); antifungal activity versus Saccharomyces cerevisiae (in words) [10]: interesting activities as an antifungal agent
